Measurements reported in patent US8669072B2, “Oxadiazoline ligands for modulating the expression of exogenous genes via an ecdysone receptor complex” (Intrexon Corporation, priority 2003, dated 2014).

Columns and labels:
[1] = target: T1, GAL4 DBD (1-147)-CfEcR(DEF)/VP16AD-βRXREF-LmUSPEF (Choristoneura fumiferana, UniProt O77240); assay: cell-based; settings: for fold induction at 33.3 µM: 48 h, read-out: Fold Induction Average, 27-63 assay; for Rel Max FI, 27-63 assay: maximum fold induction relative to that of GS-E ligand
T1 construct: The wild-type D, E, and F domains from spruce budworm Choristoneura fumiferana EcR (“CfEcR-DEF”)
Protocol: Stably transfected cells were selected by Zeocin resistance. Individually isolated CHO cell clones were transiently transfected with a GAL4 RE-luciferase reporter (pFR Luc). 27-63 clone was selected using Hygromycin.
(§1) Cells were trypsinized and diluted to a concentration of 2.5×10^4 cells mL. 100 μL of cell suspension was placed in each well of a 96 well plate and incubated at 37° C. under 5% CO2 for 24 h. Ligand stock solutions were prepared in DMSO and diluted 300 fold for all treatments.
(§2) Luciferase reporter gene expression was measured 48 h after cell treatment using Bright-Glo™ Luciferase Assay System from Promega (E2650). Luminescence was detected at room temperature using a Dynex MLX microtiter plate luminometer.
(§3) Each assay was conducted in two separate wells, and the two values were averaged. Fold inductions were calculated by dividing relative light units (“RLU”) in ligand treated cells with RLU in DMSO treated cells. EC50s were calculated from dose response data using a three-parameter logistic model.

[2] = target: T2, Bombyx mori EcR (VBE) (Bombyx mori, UniProt P49881); assay: Z3 assay: β-galactosidase reporter gene induction in HEK-293 clone Z3 (CVBE / 6XEcRE LacZ); assay type: cell-based; settings: 33 μM ligand, 48 h, RLU relative to DMSO; for fold induction at 33 µM: HEK293, read-out: Fold Induction Average, Z3 assay
T2 construct: expressed in transfected cells; host or cells: Human HEK-293 cells, retrovirally infected, clone Z3
T2 sequence (P49881 86-606 limits assumed): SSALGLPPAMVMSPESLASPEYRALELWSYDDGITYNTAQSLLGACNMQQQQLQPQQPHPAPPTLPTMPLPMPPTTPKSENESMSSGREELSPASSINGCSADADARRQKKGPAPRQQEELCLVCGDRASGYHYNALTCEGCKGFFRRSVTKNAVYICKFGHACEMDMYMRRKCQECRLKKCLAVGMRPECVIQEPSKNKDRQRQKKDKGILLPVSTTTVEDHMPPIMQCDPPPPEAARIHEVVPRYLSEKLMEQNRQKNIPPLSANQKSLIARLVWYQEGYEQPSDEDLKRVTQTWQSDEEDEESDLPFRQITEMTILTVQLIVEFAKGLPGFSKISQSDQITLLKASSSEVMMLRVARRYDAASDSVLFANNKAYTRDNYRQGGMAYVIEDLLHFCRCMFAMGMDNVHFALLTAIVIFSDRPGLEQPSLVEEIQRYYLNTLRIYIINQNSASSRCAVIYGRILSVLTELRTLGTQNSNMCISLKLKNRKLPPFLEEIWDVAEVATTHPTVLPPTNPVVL
T2 sequence (P19793 1-462 partner): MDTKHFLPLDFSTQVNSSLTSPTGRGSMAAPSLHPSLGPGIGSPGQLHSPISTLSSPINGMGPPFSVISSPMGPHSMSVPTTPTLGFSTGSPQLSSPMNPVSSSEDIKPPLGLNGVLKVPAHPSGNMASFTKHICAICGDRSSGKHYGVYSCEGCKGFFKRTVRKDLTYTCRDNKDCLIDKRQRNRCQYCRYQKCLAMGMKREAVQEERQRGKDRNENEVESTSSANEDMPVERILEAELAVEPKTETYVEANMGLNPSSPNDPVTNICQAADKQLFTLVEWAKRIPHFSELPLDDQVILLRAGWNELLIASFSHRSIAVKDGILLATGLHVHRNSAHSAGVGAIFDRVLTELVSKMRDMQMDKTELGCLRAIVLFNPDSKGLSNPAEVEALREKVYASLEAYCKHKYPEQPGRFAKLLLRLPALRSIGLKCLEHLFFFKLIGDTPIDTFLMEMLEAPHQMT
Protocol: A synthetic ATG start codon was placed under the control of cytomegalovirus (CVBE) immediate early promoter and flanked by long terminal repeats (LTR). The reporter construct contained six copies of the ecdysone response element (EcRE) binding site placed upstream of LacZ and flanked on both sides with LTR sequences (6×EcRE).
Dilution cloning was used to isolate individual clones. Clones were selected using 450 ug/mL G418 and 100 ng/mL puromycin. Individual clones were evaluated based on their response in the presence and absence of test ligands.
Z3 cells were seeded into 96-well tissue culture plates at a concentration of 2.5×10^3 cells per well and incubated at 37° C. in 5% CO2 for twenty-four hours. Stock solutions of ligands were prepared in DMSO. […] The final concentration of DMSO was maintained at 0.03% in both controls and treatments.
Reporter gene expression was evaluated 48 hours after treatment of cells, β-galactosidase activity was measured using Gal Screen™ bioluminescent reporter gene assay system from Tropix (GSY1000). Fold induction activities were calculated by dividing relative light units (“RLU”) in ligand treated cells with RLU in DMSO treated cells. Luminescence was detected at room temperature using a Dynex MLX microtiter plate luminometer.
as §3

[3] = target: T3, GAL4 DBD-CfEcR(DEF)/VP16AD-MmRXRE (Choristoneura fumiferana, UniProt O77240); assay: 13B3 assay: luciferase reporter gene induction in stable CHO clone 13B3; assay type: cell-based; settings: 33/33.3 μM ligand, 48 h, RLU relative to DMSO; for fold induction at 33.3 µM: read-out: Fold Induction Average, 13B3 assay
T3 construct: The wild-type D, E, and F domains from spruce budworm Choristoneura fumiferana EcR (“CfEcR-DEF”)
Protocol: CHO cells were transiently transfected with transcription cassettes for GAL4 DBD-CfEcR(DEF) and for VP16AD-MmRXRF controlled by SV40e promoters. Stably transfected cells were selected using Hygromycin. Individually isolated CHO cell clones were transiently transfected with a GAL4 RE-luciferase reporter (pFR-Luc, Stratagene, La Jolla, Calif.). The 13B3 clone was selected using Zeocin.
as §1, §2, §3

| SMILES | EC50 [1] [µM] | fold induction at 33.3 µM [1] | Rel Max FI, 27-63 assay [1] | fold induction at 33 µM [2] | fold induction at 33.3 µM [3] | Fold Induction Average, Z3 assay [2] | Fold Induction Average, 13B3 assay [3] |
| --- | --- | --- | --- | --- | --- | --- | --- |
| Cc1cc(C)cc(C2=NOC(C)(C)N2NC(=O)c2cccc(F)c2)c1 [RG-120002] | > 33 | 5.7 | 0 | 3.9 | 0.2 |  |  |
| CCc1c(OC)cccc1C(=O)NN1C(c2ccccc2OC)=NOC1(C)C [RG-120016] | ~20 | 1150 | 0.71 | 227 | 4.4 |  |  |
| Cc1cc(C)cc(C2=NOC(C)(C)N2NC(=O)c2ccc(Cl)cc2)c1 [RG-120024] | > 33 | 6.3 | 0 | 3.8 | 2.1 |  |  |
| COc1cccc(C(=O)NN2C(c3cc(C)cc(C)c3)=NOC23CCc2ccccc2C3)c1C (centres unmarked) [RG-120037, N-[3-(3,5-Dimethyl-phenyl)-1-oxa-2,4-diaza-spiro[4.5]-7,8-benzo-dec-2-en-4-yl]-3-methoxy-2-methyl-benzamide] | > 33 | 0.4 | 0 | 0.5 | 0.3 |  |  |
| CCc1ccc(C(=O)NN2C(c3cc(C)cc(C)c3)=NOC23CCCC3)cc1 [RG-120040] | ~20 | 242 | 0.13 | 202 | 174 |  |  |
| COc1cccc(C(=O)NN2C(c3cc(C)cc(C)c3)=NOC2(C)C)c1C [RG-120045, N-[3-(3,5-Dimethyl-phenyl)-5,5-dimethyl-[1,2,4]oxadiazol-4-yl]-3-methoxy-2-methyl-benzamide] | ~20 | 2710 | 1.25 | 276 | 1410 |  |  |
| COc1ccc(C2=NOC(C)(C)N2NC(=O)c2ccco2)c(OC)c1 [RG-120102] |  |  |  |  |  | 0.8 | 0.5 |
| COc1ccc(C2=NOC(C)(C)N2NC(=O)COCc2ccccc2)c(OC)c1 [RG-120110] |  |  |  |  |  | 0.5 | 0.8 |
| Cc1cc(C)cc(C2=NOC(C)(C)N2NC(=O)NC(=O)c2ccccc2)c1 [RG-120111] |  |  |  |  |  | 0.7 | 0.6 |
| COc1ccc(C2=NOC(C)(C)N2NC(=O)Nc2ccccc2)c(OC)c1 [RG-120114] |  |  |  |  |  | 0.6 | 1.1 |
| CC1(C)ON=C(c2ccc(Cl)cc2)N1NC(=O)COCc1ccccc1 [RG-120117] |  |  |  |  |  | 0.8 | 1.2 |
| CC1(C)ON=C(c2ccc(Cl)cc2)N1NC(=O)Cc1ccccc1 [RG-120121] |  |  |  |  |  | 0.7 | 0.1 |
| CC1(C)ON=C(c2ccc(OC(F)(F)F)cc2)N1NC(=O)Nc1ccccc1 [RG-120122] |  |  |  |  |  | 0.6 | 0.5 |
| CC1(C)ON=C(c2ccc3c(c2)OCO3)N1NC(=O)COc1ccccc1 [RG-120127] |  |  |  |  |  | 0.7 | 0.6 |
| COc1ccc(C2=NOC(C)(C)N2NC(=O)c2cc3ccccc3s2)c(OC)c1 [RG-120129] |  |  |  |  |  | 0.4 | 0.9 |
| CC1(C)ON=C(c2ccc3c(c2)OCO3)N1NC(=O)c1cc2ccccc2s1 [RG-120140] |  |  |  |  |  | 0.5 | 1.4 |
| CCc1ccc(C(=O)NN2C(c3ccc(-c4ccccc4)cc3)=NOC2(C)C)cc1 [RG-120142] |  |  |  |  |  | 0.4 | 0.3 |
| CCOC(=O)CCC(=O)NN1C(c2ccccc2OC)=NOC1(C)C [RG-120144] |  |  |  |  |  | 0.7 | 0.1 |
| CC1(C)ON=C(c2ccc3c(c2)OCO3)N1NC(=O)COCc1ccccc1 [RG-120145] |  |  |  |  |  | 0.5 | 1.4 |
| COc1ccccc1C1=NOC(C)(C)N1NC(=O)c1ccccc1 [RG-120147] |  |  |  |  |  | 1.0 | 1.1 |
| CC1(C)ON=C(c2ccc3c(c2)OCO3)N1NC(=O)c1ccco1 [RG-120149] |  |  |  |  |  | 0.7 | 1.1 |
| CC1(C)ON=C(c2ccc(Cl)cc2)N1NC(=O)c1ccccc1 [RG-120151] |  |  |  |  |  | 0.8 | 0.3 |
| CCOC(=O)CCC(=O)NN1C(c2cccc(C(F)(F)F)c2)=NOC1(C)C [RG-120153] |  |  |  |  |  | 0.7 | 0.8 |
| CC1(C)ON=C(c2ccc3c(c2)OCO3)N1NC(=O)c1ccccc1 [RG-120156] |  |  |  |  |  | 0.7 | 1.4 |
| CC1(C)ON=C(c2ccc(OC(F)(F)F)cc2)N1NC(=O)Cc1ccccc1 [RG-120160] |  |  |  |  |  | 0.6 | 0.3 |
| CC1(C)ON=C(c2ccc(Cl)cc2)N1NC(=O)COc1ccccc1 [RG-120162] |  |  |  |  |  | 0.7 | 0.9 |
| CC1(C)ON=C(c2cccc(C(F)(F)F)c2)N1NC(=O)COc1ccccc1 [RG-120163] |  |  |  |  |  | 0.5 | 1.1 |
| CCOC(=O)CCC(=O)NN1C(c2ccc(Cl)cc2)=NOC1(C)C [RG-120164] |  |  |  |  |  | 0.6 | 1.7 |
